How the values were obtained:
[1] = system: primary culture of human keratinocytes (HEKA); test: MTT cytotoxicity test on keratinocytes; assay type: cell-based; conditions: positive control, 0.5 mg/ml SDS
Source text: (§1) For this purpose the cell viability test using MTT (3-[4,5-dimethylthiazol-2-yl]-2,5-diphenyl tetrazolium bromide) [Mossman 1993] a colourimetric reagent, by means of which it is possible to distinguish between living, damaged or dead cells, being thus predictive of the safety of use of test substances, even “in vivo”, has been selected.
(§2) The following have been used: • human fibroblasts, Detroit 551 ATCC CCL III from LGC Promochem (Milan, Italy); • primary culture of human keratinocytes (HEKA), Cascade Biologics, cat.-005-5c.
(§3) In the study in question, CA has been previously dissolved and brought into contact with the selected cell cultures in such a manner as to directly reach the desired concentrations, i.e.: […]
(§4) As already mentioned, the key reagent is MTT, a yellow-coloured substance in aqueous solution which, when acted-on by the mitochondrial dehydrogenases present in viable cells, is transformed into purple crystals, insoluble in water, but soluble in acidified isopropanol. The absorbance of the resulting purple solution at […] is used as an indicator of the level of cytotoxicity of the substances under test.
(§5) In operational terms, the key reagent is prepared by adding 15 mg of MTT to 30 ml of culture medium. […] The plates are shaken for 20-30 minutes until a homogenous solution is formed, the absorbance of which is then read at […] with a background reading at 670 nm. […]

[2] = system: Human fibroblasts, Detroit 551 ATCC CCL III; test: MTT cytotoxicity test on fibroblasts; assay type: cell-based; conditions: positive control, 0.5 mg/ml SDS
Source text: as §1, §2, §3, §4, §5

[3] = system: extracellular matrix metalloproteases; conditions: HA 1 mg/ml; cited from earlier work
mouse skin fibroblasts = conditions: addition of HA to primary cultures; cited from earlier work
[4] = exogenous hyaluronic acid, non cross-linked; cited from earlier work
[5] = system: Human fibroblasts, Detroit 551 ATCC CCL III; test: Stimulation of HA synthesis in human fibroblast cultures (EIA HA assay); assay type: cell-based; conditions: 48 h
Source text: The test has been conducted in two stages, i.e.: • stage A: in which the stimulation of HA expression by COMBI has been evaluated while maintaining the concentration constant and varying the reciprocal quantities of its components. The concentration used has been selected so as to enable comparison with the results derived from stage B; • stage B: in which the effect of CA on HA expression has been evaluated by varying its concentration and in comparison with doses consistent with its components. […] Human fibroblasts have been grown in suitable growth medium (Eagle's minimal essential medium) supplemented with 10% foetal calf serum (FCS), 1 mM sodium pyruvate, 2 mM glutamine, non-essential aminoacids and 50 μg/ml glutamycin. […] After 48 hours, the supernatant has been removed and used for the determination of the parameters of interest. The test has been conducted in duplicate and untreated cell cultures have been used as controls. HA has been assayed (dosed) by means of an immuno-enzymatic test using a commercially available kit (EIA, Corgenix). De novo HA synthesis has been evaluated in the culture medium following treatment with the test substances, according to the protocol provided with the test, and against the calibration curve obtained using the HA standard contained in the kit. […] • evaluation of the effects of the substances tested, at the various concentrations, on fibroblast cultures has been expressed as the absolute and percent increase or decrease of the HA expression, with respect to the corresponding control culture, after 48 hours of incubation. The percentage difference increase or decrease of the effects exerted by CA and NAG, at corresponding concentrations, have then been calculated, with evaluation of their potential significance by means of the Student's “t” test.

[6] = system: Human fibroblasts, Detroit 551 ATCC CCL III; test: Stimulation of elastin synthesis in human fibroblast cultures (Fastin assay); assay type: cell-based; conditions: 24 h
Source text: The scope of the test has been the evaluation and the comparison of the potential stimulation exerted by the test substances on the expression of collagen and elastin in “in vitro” cultures of skin-derived cells, such as fibroblasts. The test in question, even though conducted “in vitro”, can be considered to be predictive of the effects of use of the same substances “in vivo”.
Human fibroblasts, Detroit 551 ATCC CCL III from LGC Promochem (Milan, Italy) have been used.
The substances and concentrations tested have been the same as those already described for stage B of the test on the stimulation of HA expression, i.e.: • CA: 0.66, 1.32, 1.98, 2.64 and 3.3 mg/ml • NAG: 0.5, 1.0, 1.5, 2.0 and 2.5 mg/ml • ASS: 0.16, 0.32, 0.48, 0.64 and 0.80 mg/ml
Cells have been plated out in 96 well plates, 2500 cells/well for 24 hours in cell growth medium ([…], DMEM)+10% foetal calf serum (FCS). Fresh culture medium, enriched with just 5% FCS and containing the substances to be tested, so as to reach the final concentrations desired, has then been added. The samples have been dissolved directly in the culture medium. Each sample has been tested in duplicate and the experiments have been repeated twice. The parameters of interest have been determined after 24 hours on separate plates. Untreated cell cultures have been used as controls.
Elastin has been assayed using a commercially available test (Fastin™, biodye science). The assay is based on the interaction of 5,10,15,20-tetraphenyl-21,23-porphyrin with elastin molecules.
De novo elastin synthesis has been evaluated in the culture medium following treatment with the test substances, following the protocol provided with the test, and by using the calibration curve obtained employing the elastin standard contained in the kit itself.
Evaluation of the effects of the substances tested, at the various concentrations, on fibroblast cultures, has been expressed as the absolute and percent increase or decrease of collagen and elastin expression, with respect to the corresponding control culture, after 24 hours of incubation.
The percentage difference increase or decrease of the effects exerted by CA and NAG, at corresponding concentrations, have then been calculated, with consequent evaluation of their potential statistical significance by means of the test Student “t” test.

[7] = system: Human fibroblasts, Detroit 551 ATCC CCL III; test: Stimulation of collagen synthesis in human fibroblast cultures (Sircol assay); assay type: cell-based; conditions: 24 h
Source text: The scope of the test has been the evaluation and the comparison of the potential stimulation exerted by the test substances on the expression of collagen and elastin in “in vitro” cultures of skin-derived cells, such as fibroblasts. The test in question, even though conducted “in vitro”, can be considered to be predictive of the effects of use of the same substances “in vivo”. […] The samples have been dissolved directly in the culture medium. Each sample has been tested in duplicate and the experiments have been repeated twice. The parameters of interest have been determined after 24 hours on separate plates. Untreated cell cultures have been used as controls. A commercially available kit (Sircol™, biodye science) which uses the capacity of the stain Sirius Red to interact with the basic side chains of the aminoacids present in collagen itself, has been used for collagen assays. De novo collagen synthesis has been evaluated in the culture medium following treatment with the test substances, following the protocol provided with the kit, and by using the calibration curve obtained employing the collagen standard contained in turn in the kit. Evaluation of the effects of the substances tested, at the various concentrations, on fibroblast cultures, has been expressed as the absolute and percent increase or decrease of collagen and elastin expression, with respect to the corresponding control culture, after 24 hours of incubation. The percentage difference increase or decrease of the effects exerted by CA and NAG, at corresponding concentrations, have then been calculated, with consequent evaluation of their potential statistical significance by means of the test Student “t” test.

CCCCCCCCCCCCOS(=O)(=O)[O-].[Na+] [SDS, sodium dodecylsulphate]
mortality of the keratinocyte culture [1]: 94.28%
cell mortality [2]: 96.05%

Hyaluronic acid [HA]
expression of extracellular matrix metalloproteases [3]: clear increase
effect on DNA synthesis (mouse skin fibroblasts): causes transient DNA synthesis
half-life in the skin [4]: less than 24 hours

anhydrous sodium sulphate [ASS]
HA (%) (Diff. from baseline) ([5]; ASS 0.16 mg/ml): +6.07%
HA(ng/well) (Diff. from baseline) ([5]; ASS 0.16 mg/ml): 35 ng/well
HA (%) (Diff. from baseline) ([5]; ASS 0.32 mg/ml): +7.99%
HA(ng/well) (Diff. from baseline) ([5]; ASS 0.32 mg/ml): 46 ng/well
HA (%) (Diff. from baseline) ([5]; ASS 0.48 mg/ml): +9.38%
HA(ng/well) (Diff. from baseline) ([5]; ASS 0.48 mg/ml): 54 ng/well
HA (%) (Diff. from baseline) ([5]; ASS 0.64 mg/ml): −25.87%
HA(ng/well) (Diff. from baseline) ([5]; ASS 0.64 mg/ml): −149 ng/well
HA (%) (Diff. from baseline) ([5]; ASS 0.80 mg/ml): +1.91%
HA(ng/well) (Diff. from baseline) ([5]; ASS 0.80 mg/ml): 11 ng/well
effect on HA expression (in words) ([5]; ASS alone 0.16-0.80 mg/ml): exerts no stimulation nor inhibition
Elastin (%) (Diff. from baseline) ([6]; ASS 0.16 mg/ml): −2.33%
Elastin (μg/ml) (Diff. from baseline) ([6]; ASS 0.16 mg/ml): -0.11 µg/mL
Elastin (μg/ml) (Mean ± st. dev.) ([6]; ASS 0.16 mg/ml): 4.61 ± 0.41 µg/mL
Elastin (%) (Diff. from baseline) ([6]; ASS 0.32 mg/ml): +1.98%
Elastin (μg/ml) (Diff. from baseline) ([6]; ASS 0.32 mg/ml): +0.07 μg/ml
Elastin (μg/ml) (Mean ± st. dev.) ([6]; ASS 0.32 mg/ml): 4.79 ± 0.44 µg/mL
Elastin (%) (Diff. from baseline) ([6]; ASS 0.48 mg/ml): +9.75%
Elastin (μg/ml) (Diff. from baseline) ([6]; ASS 0.48 mg/ml): +0.46 μg/ml
Elastin (μg/ml) (Mean ± st. dev.) ([6]; ASS 0.48 mg/ml): 5.18 ± 0.36 µg/mL
Elastin (%) (Diff. from baseline) ([6]; ASS 0.64 mg/ml): −3.81%
Elastin (μg/ml) (Diff. from baseline) ([6]; ASS 0.64 mg/ml): -0.18 µg/mL
Elastin (μg/ml) (Mean ± st. dev.) ([6]; ASS 0.64 mg/ml): 4.54 ± 0.47 µg/mL
Elastin (%) (Diff. from baseline) ([6]; ASS 0.80 mg/ml): −3.39%
Elastin (μg/ml) (Diff. from baseline) ([6]; ASS 0.80 mg/ml): +0.16 μg/ml
Elastin (μg/ml) (Mean ± st. dev.) ([6]; ASS 0.80 mg/ml): 4.83 ± 0.30 µg/mL
effect on elastin expression (in words) ([6]; ASS alone 0.16-0.80 mg/ml): incapable of exerting any effect, either stimulatory or inhibitory
Collagen (%) (Diff. from baseline) ([7]; ASS 0.16 mg/ml): −8.45%
Collagen(μg/ml) (Diff. from baseline) ([7]; ASS 0.16 mg/ml): -0.43 µg/mL
Collagen (%) (Diff. from baseline) ([7]; ASS 0.32 mg/ml): +3.93%
Collagen(μg/ml) (Diff. from baseline) ([7]; ASS 0.32 mg/ml): +0.20 μg/ml
Collagen (%) (Diff. from baseline) ([7]; ASS 0.48 mg/ml): +1.77%
Collagen(μg/ml) (Diff. from baseline) ([7]; ASS 0.48 mg/ml): +0.09 μg/ml
Collagen (%) (Diff. from baseline) ([7]; ASS 0.64 mg/ml): +9.03%
Collagen(μg/ml) (Diff. from baseline) ([7]; ASS 0.64 mg/ml): +0.46 μg/ml
Collagen (%) (Diff. from baseline) ([7]; ASS 0.80 mg/ml): −3.34%
Collagen(μg/ml) (Diff. from baseline) ([7]; ASS 0.80 mg/ml): -0.17 µg/mL
effect on collagen expression (in words) ([7]; ASS alone 0.16-0.80 mg/ml): exerts no type of stimulation or inhibition

— patent US20100028395A1, “COMPOSITIONS CONTAINING N-ACETYLGLUCOSAMINE FOR USE IN DERMO-COSMETOLOGY AND AESTHETIC MEDICINE” (ROTTAPHARM S.P.A., priority 2007, published 2010)
